Reference: patent US11993574B2, “Pyrazole and imidazole compounds for inhibition of IL-17 and RORgamma” (REATA PHARMACEUTICALS, INC., priority 2018, dated 2024)

Tests used:
Type in all cases: cell-based
IL-17A = experiment: IL-17 release from differentiated primary human T-cells (IL-17A HTRF assay); conditions: primary human CD4+ T cells differentiated into Th17 cells, 45-hour incubation, IL-17A in supernatant; read-out: hIL17 IC50
Method in brief: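 Primary human CD4+ T cells (~2×10^5/well) given compound (2–500 or 4–1000 nM, 0.1% DMSO), CD3/CD28-activated and Th17-differentiated (TGF-β, IL-6, IL-23, IL-1β) for 45 h at 37° C. Supernatant IL-17A by HTRF against standard curve, normalized to vehicle; IC50 by variable-slope regression, with parallel CyQuant viability.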

[1] = biological target: T1, Human RAR-related Orphan Receptor Gamma (RORγ) (Homo sapiens, UniProt P51449); experiment: RORγ assay (GAL4-RORγ hybrid luciferase reporter, Indigo Biosciences); conditions: inverse-agonist activity, GAL4-RORγ reporter cells, 23 hours
T1 sequence (P51449 269-508 limits assumed): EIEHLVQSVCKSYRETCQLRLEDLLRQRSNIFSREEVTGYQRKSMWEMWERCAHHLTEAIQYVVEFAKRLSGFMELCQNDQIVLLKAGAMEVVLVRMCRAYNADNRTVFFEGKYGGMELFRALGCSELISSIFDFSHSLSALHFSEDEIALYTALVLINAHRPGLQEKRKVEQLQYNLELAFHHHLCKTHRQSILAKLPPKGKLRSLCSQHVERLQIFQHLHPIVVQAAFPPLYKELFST
Method in brief: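 […]engineered human reporter cell line expressing GAL4-DBD/RORγ-LBD hybrid with GAL4-UAS luciferase; constitutive activity measured as inverse agonism. Cells treated with compound (7.8-2000 nM) for 23 h at 37 °C; luminescence normalized to DMSO, IC50 by variable-slope fit, with parallel viability readout to flag non-specific inhibition.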

[2] = system: Nrf2 transcription factor; experiment: AREc32 luciferase reporter assay; conditions: Homo sapiens; AREc32 cells, 19 hours; concentration required to increase GST ARE luciferase reporter activity by 2-fold; read-out: NRF2 ARE 2-Fold (EC2×)
Method in brief: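 AREc32 cells (MCF-7 with firefly luciferase under eight rat GSTA2 ARE copies) treated 19 h with compound (0.4-200 nM or 3.9-2000 nM) in triplicate. Luminescence normalized to DMSO as fold-induction, capped at 50-fold. EC2× = concentration giving 2-fold reporter increase, interpolated from variable-slope fit.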

| SMILES | IC50 (IL-17A) [nM] | IC50 [1] [nM] | EC (2-fold) [2] [µM] |
| --- | --- | --- | --- |
| C[C@H]1C(=O)C(C#N)=C[C@@]2(C)c3c(c(NC4CCC4)nn3-c3ccc(-c4ccccc4)cc3)CC[C@H]12 [T78] | 48 | 62 | 0.534 |
| C[C@H]1C(=O)C(C#N)=C[C@@]2(C)c3c(c(-c4ccncn4)nn3-c3ccc(-c4cncnc4)cc3)CC[C@H]12 [T50] | 326 | 115 | 0.977 |
| C[C@H]1C(=O)C(C#N)=C[C@@]2(C)c3c(c(-c4ccncn4)nn3-c3ccc(-c4ccnc(CO)c4)cc3)CC[C@H]12 [T55] | 149 | 174 | 0.609 |
| Cc1cc(-c2ccc(-n3nc(-c4nc(C)no4)c4c3[C@]3(C)C=C(C#N)C(=O)[C@H](C)[C@H]3CC4)cc2)cnn1 [T108] | 223 | 154 | 1.25 |
| C[C@H]1C(=O)C(C#N)=C[C@@]2(C)c3c(c(-c4ccccc4)nn3-c3ccc(-c4ccncc4)cc3)CC[C@H]12 [T39] | 31 | 25 | 0.139 |
| C[C@H]1C(=O)C(C#N)=C[C@@]2(C)c3c(c(-c4ccncc4)nn3-c3ccc(-c4cncc(F)c4)cc3)CC[C@H]12 [T101] | 51 | 54 | 0.353 |
| C[C@H]1C(=O)C(C#N)=C[C@@]2(C)c3c(c(-c4ccccc4)nn3Cc3ccccc3)CC[C@H]12 [T5] | 119 | 136 | 0.587 |
| COc1ccc(-n2nc3c(c2-c2ccccc2)CC[C@@H]2[C@@H](C)C(=O)C(C#N)=C[C@@]32C)cc1 [T116] | 191 | 80 | 0.483 |
| C[C@H]1C(=O)C(C#N)=C[C@@]2(C)c3c(c(-c4cccnc4)nn3-c3ccc(-c4ccccc4)cc3)CC[C@H]12 [T68] | 27 | 36 | 0.248 |
| Cc1ccc(-n2nc(-c3ccccc3)c3c2[C@]2(C)C=C(C#N)C(=O)[C@H](C)[C@H]2CC3)cc1 [T12] | 76 | 55 | 0.135 |
| C[C@H]1C(=O)C(C#N)=C[C@@]2(C)c3c(c(-c4ccccc4F)nn3-c3nc4ccccc4n3C)CC[C@H]12 [T90] | 57 | 135 | 1.31 |
| C[C@H]1C(=O)C(C#N)=C[C@@]2(C)c3c(c(-c4cccnc4)nn3-c3nc4ccccc4s3)CC[C@H]12 [T99] | 87 | 449 | 0.329 |
| C[C@H]1C(=O)C(C#N)=C[C@@]2(C)c3c(c(N(C)C4CCC4)nn3-c3ccc(-c4ccccc4)cc3)CC[C@H]12 [T80] | 17 | 71 | 0.347 |
| C[C@H]1C(=O)C(C#N)=C[C@@]2(C)c3nc(C4CCCCC4)n(-c4ccccc4)c3CC[C@H]12 [T113] | 181 | 172 | > 1 |
| Cc1noc(-c2ccc(-n3nc(-c4cccnc4)c4c3[C@]3(C)C=C(C#N)C(=O)[C@H](C)[C@H]3CC4)cc2)n1 [T107] | 87 | 112 | 0.505 |
| C[C@H]1C(=O)C(C#N)=C[C@@]2(C)c3c(c(-c4ccccc4)nn3-c3cccc4ccccc34)CC[C@H]12 [T23] | 89 | 118 | 0.19 |
| C[C@H]1C(=O)C(C#N)=C[C@@]2(C)c3c(c(-c4ccccc4F)nn3-c3ccc(-c4ccncc4)cc3)CC[C@H]12 [T84] | 33 | 23 | 0.121 |
| CC(C)c1ccc(-n2nc3c(c2-c2ccccc2)CC[C@@H]2[C@@H](C)C(=O)C(C#N)=C[C@@]32C)cc1 [T26] | 61 | 104 | 0.944 |
| Cc1ccc(-n2nc(-c3ccccc3)c3c2[C@]2(C)C=C(C#N)C(=O)[C@H](C)[C@H]2CC3)nc1 [T31] | 100 | 91 | 0.298 |
| C[C@H]1C(=O)C(C#N)=C[C@@]2(C)c3c(c(-c4ccccc4F)nn3-c3nc4ccccc4s3)CC[C@H]12 [T92] | 28 | 340 | 0.491 |
| C[C@H]1C(=O)C(C#N)=C[C@@]2(C)c3c(c(-c4cncnc4)nn3-c3ccc(-c4ccccc4)cc3)CC[C@H]12 [T70] | 58 | 75 | 0.472 |
| C[C@H]1C(=O)C(C#N)=C[C@@]2(C)c3nn(-c4cccc5ccccc45)c(-c4ccccc4)c3CC[C@H]12 [T24] | 30 | 284 | 0.827 |
| C[C@H]1C(=O)C(C#N)=C[C@@]2(C)c3nn(-c4ccc(OC(F)(F)F)cc4)c(-c4ccccc4)c3CC[C@H]12 [T20] | 94 | 115 | 0.927 |

The next lines start with results.

| IC50 (IL-17A) [nM] | IC50 [1] [nM] | SMILES | EC (2-fold) [2] [µM] |
| --- | --- | --- | --- |
| 183 | 143 | C[C@H]1C(=O)C(C#N)=C[C@@]2(C)c3nc(-c4ccccc4)n(-c4cccc(F)c4)c3CC[C@H]12 [T134] | 0.832 |
| 43 | 158 | C[C@H]1C(=O)C(C#N)=C[C@@]2(C)c3nn(-c4ccc(-c5ccccc5)cc4)c(CC4CCC4)c3CC[C@H]12 [T119] | 1.16 |
| 138 | 170 | CC(C)c1ncc(-c2nc3c(n2-c2cccc(F)c2)CC[C@@H]2[C@@H](C)C(=O)C(C#N)=C[C@@]32C)cn1 [T131] | 0.767 |
| 128 | 112 | C[C@H]1C(=O)C(C#N)=C[C@@]2(C)c3nc(-c4ccnc(N5CCOCC5)c4)n(-c4cccc(F)c4)c3CC[C@H]12 [T139] | 0.66 |
| 117 | 158 | C[C@H]1C(=O)C(C#N)=C[C@@]2(C)c3nc(-c4cccc(-c5ccccc5)c4)n(-c4cccc(F)c4)c3CC[C@H]12 [T128] | 0.818 |
| 132 | 95 | C[C@H]1C(=O)C(C#N)=C[C@@]2(C)c3nc(-c4cccc(N5CCOCC5)c4)n(-c4cccc(F)c4)c3CC[C@H]12 [T143] | 0.643 |
| 72 | 103 | CC(C)c1ccc(-c2nc3c(n2Cc2ccccn2)CC[C@@H]2[C@@H](C)C(=O)C(C#N)=C[C@@]32C)cc1 [T170] | 0.602 |
| 211 | 471 | CC(C)c1ccc(-c2nc3c(n2CCOCc2ccccc2)CC[C@@H]2[C@@H](C)C(=O)C(C#N)=C[C@@]32C)cc1 [T165] | > 2 |
| 240 | 124 | C[C@H]1C(=O)C(C#N)=C[C@@]2(C)c3nc(-c4ccc(Cl)c(Cl)c4)n(-c4cnn(C)c4)c3CC[C@H]12 [T158] | 1.09 |
| 73 | 214 | CC(C)c1ccc(-c2nc3c(n2-c2cccc(F)c2)CC[C@@H]2[C@@H](C)C(=O)C(C#N)=C[C@@]32C)cc1 [T129] | 1.29 |
| 68 | 113 | C[C@H]1C(=O)C(C#N)=C[C@@]2(C)c3c(c(-c4ccc(F)cc4)nn3-c3ccc(-c4ncon4)cc3)CC[C@H]12 [T183] | 0.526 |
| 33 | 371 | CC(C)c1ccc(-c2nc3c(n2Cc2ccc(Cl)cc2)CC[C@@H]2[C@@H](C)C(=O)C(C#N)=C[C@@]32C)cc1 [T169] | 1.01 |
| 104 | 135 | Cc1noc(C)c1-c1cccc(-c2nc3c(n2-c2cccc(F)c2)CC[C@@H]2[C@@H](C)C(=O)C(C#N)=C[C@@]32C)c1 [T150] | 0.488 |
